Measurements as given in patent EP0908457B1, “3-(1,2-benzisothiazol- and isoxazol-5-Y1)-2,4(1H,3H)-pyrimidinedione or thione and 3-(1,2-benzisothiazol- and isoxazol-5-y1)-4(3H)-pyrimidinone or thione herbicidal agents” (BASF AKTIENGESELLSCHAFT, priority 1997, dated 1999).
Counter-ions that a name gives are not always drawn.

How the values were obtained:
Assay type in all cases: in vivo
[1] = tested on: Monochoria vaginalis, Presl.; test: Preemergence weed control under flooded paddy conditions, MOOVA (Monochoria); settings: flooded paddy; for herbicidal effect rating, MOOVA / MOOVA herbicidal rating: preemergence; for MOOVA: preemergence weeds, herbicidal effect rating 0-9, three to four weeks after treatment
[2] = tested on: Echinochloa oryzoides (Ard.) Fritsch.; test: Preemergence weed control under flooded paddy conditions, ECHORC (Watergrass (Calif.)); settings: flooded paddy; for herbicidal effect rating, ECHORC / ECHORC herbicidal rating: preemergence; for ECHORC: preemergence weeds, herbicidal effect rating 0-9, three to four weeks after treatment
Cyperus iria = test: Preemergence weed control under flooded paddy conditions, CYPIR (Rice Flatsedge); settings: flooded paddy; for herbicidal effect rating, CYPIR / CYPIR herbicidal rating: preemergence; for CYPIR: preemergence weeds, herbicidal effect rating 0-9, three to four weeks after treatment
Sagittaria pygmaea, L. = test: Preemergence weed control under flooded paddy conditions, SAGPY (Arrowhead (Pygmaea)); settings: preemergence, flooded paddy
[3] = tested on: Cyperus serotinus, Rottb.; test: Preemergence weed control under flooded paddy conditions, CYPSE (Flatsedge); settings: for herbicidal effect rating, CYPSE / CYPSE herbicidal rating: preemergence
[4] = Rate 0.0320 kg/ha, rated 3-4 weeks after treatment
[5] = Rate 0.0620 kg/ha, rated 3-4 weeks after treatment
[6] = Rate 0.1250 kg/ha, rated 3-4 weeks after treatment
[7] = Rate 0.2500 kg/ha, rated 3-4 weeks after treatment
[8] = Rate 0.0320 kg/ha, rated three to four weeks after treatment
[9] = Rate 0.0620 kg/ha, rated three to four weeks after treatment
[10] = Rate 0.1250 kg/ha, rated three to four weeks after treatment
[11] = Rate 0.2500 kg/ha, rated three to four weeks after treatment
[12] = 0.0320 kg/ha, rated three to four weeks after treatment
[13] = 0.0620 kg/ha, rated three to four weeks after treatment
[14] = 0.1250 kg/ha, rated three to four weeks after treatment
[15] = 0.2500 kg/ha, rated three to four weeks after treatment

Molecule: Cc1ccc(OCC(=O)OCCCCCO[Si](C)(C)C(C)(C)C)c(-c2nsc3ccc(-n4c(=O)cc(C(F)(F)F)n(C)c4=O)cc23)c1 [Example 534, Acetic acid, {{2-{5-[3,6-dihydro-3-methyl-2,6-dioxo-4-(trifluoromethyl)-1(2H)-pyrimidinyl]-1,2-benzisothiazol-3-yl}-p-tolyl}oxy}-, 5-(tert-butyldimethylsiloxy)pentyl ester]
- herbicidal effect rating, MOOVA [1, 4]: 4.0
- herbicidal effect rating, MOOVA [1, 5]: 9.0
- herbicidal effect rating, MOOVA [1, 6]: 9.0
- herbicidal effect rating, MOOVA [1, 7]: 9.0
- herbicidal effect rating, ECHORC [2, 4]: 3.5
- herbicidal effect rating, ECHORC [2, 5]: 4.5
- herbicidal effect rating, ECHORC [2, 6]: 9.0
- herbicidal effect rating, ECHORC [2, 7]: 9.0
- herbicidal effect rating, CYPIR (Cyperus iria; [4]): 0.0
- herbicidal effect rating, CYPIR (Cyperus iria; [5]): 3.0
- herbicidal effect rating, CYPIR (Cyperus iria; [6]): 3.0
- herbicidal effect rating, CYPIR (Cyperus iria; [7]): 9.0
- herbicidal effect rating, SAGPY (Sagittaria pygmaea, L.; [4]): 0.0
- herbicidal effect rating, SAGPY (Sagittaria pygmaea, L.; [5]): 0.0
- herbicidal effect rating, SAGPY (Sagittaria pygmaea, L.; [6]): 0.0
- herbicidal effect rating, SAGPY (Sagittaria pygmaea, L.; [7]): 0.0
- herbicidal effect rating, CYPSE [3, 4]: 0.0
- herbicidal effect rating, CYPSE [3, 5]: 0.0
- herbicidal effect rating, CYPSE [3, 6]: 0.0
- herbicidal effect rating, CYPSE [3, 7]: 0.0

Molecule: Cn1c(C(F)(F)F)cc(=O)n(-c2ccc3snc(COC(=O)Cc4ccc(Cl)cc4Cl)c3c2)c1=O [Example 401, 2,4(1H,3H)-Pyrimidinedione, 3-[3-(hydroxymethyl)-1,2-benzisothiazol-5-yl]-1-methyl-6-(trifluoromethyl)-, (2,4-dichlorophenyl)acetate (ester)]
- herbicidal effect rating, MOOVA [1, 8]: 6.0
- herbicidal effect rating, MOOVA [1, 9]: 7.0
- herbicidal effect rating, MOOVA [1, 10]: 7.0
- herbicidal effect rating, MOOVA [1, 11]: 9.0
- herbicidal effect rating, ECHORC [2, 8]: 0.0
- herbicidal effect rating, ECHORC [2, 9]: 0.0
- herbicidal effect rating, ECHORC [2, 10]: 2.0
- herbicidal effect rating, ECHORC [2, 11]: 6.0
- herbicidal effect rating, CYPIR (Cyperus iria; [8]): 3.0
- herbicidal effect rating, CYPIR (Cyperus iria; [9]): 4.0
- herbicidal effect rating, CYPIR (Cyperus iria; [10]): 5.0
- herbicidal effect rating, CYPIR (Cyperus iria; [11]): 6.0
- herbicidal effect rating, SAGPY (Sagittaria pygmaea, L.; [8]): 0.0
- herbicidal effect rating, SAGPY (Sagittaria pygmaea, L.; [9]): 0.0
- herbicidal effect rating, SAGPY (Sagittaria pygmaea, L.; [10]): 2.0
- herbicidal effect rating, SAGPY (Sagittaria pygmaea, L.; [11]): 3.0
- herbicidal effect rating, CYPSE [3, 9]: 0.0
- herbicidal effect rating, CYPSE [3, 10]: 0.0
- herbicidal effect rating, CYPSE [3, 11]: 3.0

Molecule: COc1ccc(COC(=O)C(C)(C)c2nsc3ccc(-n4c(=O)cc(C(F)(F)F)n(C)c4=O)cc23)cc1 [Example 397, 1,2-Benzisothiazole-3-acetic acid, 5-[3,6-dihydro-3-methyl-2,6-dioxo-4-(trifluoromethyl)-1(2H)-pyrimidinyl]-alpha,alpha-dimethyl-, p-methoxybenzyl ester]
- herbicidal effect rating, MOOVA [1, 8]: 9.0
- herbicidal effect rating, MOOVA [1, 9]: 9.0
- herbicidal effect rating, MOOVA [1, 10]: 9.0
- herbicidal effect rating, MOOVA [1, 11]: 9.0
- herbicidal effect rating, ECHORC [2, 8]: 9.0
- herbicidal effect rating, ECHORC [2, 9]: 9.0
- herbicidal effect rating, ECHORC [2, 10]: 9.0
- herbicidal effect rating, ECHORC [2, 11]: 9.0
- herbicidal effect rating, CYPIR (Cyperus iria; [8]): 6.0
- herbicidal effect rating, CYPIR (Cyperus iria; [9]): 7.0
- herbicidal effect rating, CYPIR (Cyperus iria; [10]): 9.0
- herbicidal effect rating, CYPIR (Cyperus iria; [11]): 9.0
- herbicidal effect rating, SAGPY (Sagittaria pygmaea, L.; [8]): 4.0
- herbicidal effect rating, SAGPY (Sagittaria pygmaea, L.; [9]): 5.0
- herbicidal effect rating, SAGPY (Sagittaria pygmaea, L.; [10]): 5.0
- herbicidal effect rating, SAGPY (Sagittaria pygmaea, L.; [11]): 5.0
- herbicidal effect rating, CYPSE [3, 8]: 0.0
- herbicidal effect rating, CYPSE [3, 10]: 0.0
- herbicidal effect rating, CYPSE [3, 11]: 0.0

Molecule: Cn1c(C(F)(F)F)cc(=O)n(-c2ccc3snc(COC(=O)c4ccco4)c3c2)c1=O [Example 497, 2,4(1H,3H)-Pyrimidinedione, 3-[3-(hydroxymethyl)-1,2-benzisothiazol-5-yl]-1-methyl-6-(trifluoromethyl)-, 2-furoate (ester)]
- MOOVA herbicidal rating [1, 12]: 6.0
- MOOVA herbicidal rating [1, 13]: 7.0
- MOOVA herbicidal rating [1, 14]: 9.0
- MOOVA herbicidal rating [1, 15]: 9.0
- ECHORC herbicidal rating [2, 12]: 0.0
- ECHORC herbicidal rating [2, 13]: 0.0
- ECHORC herbicidal rating [2, 14]: 4.0
- ECHORC herbicidal rating [2, 15]: 7.0
- CYPIR herbicidal rating (Cyperus iria; [12]): 5.0
- CYPIR herbicidal rating (Cyperus iria; [13]): 6.0
- CYPIR herbicidal rating (Cyperus iria; [14]): 9.0
- CYPIR herbicidal rating (Cyperus iria; [15]): 9.0
- SAGPY herbicidal rating (Sagittaria pygmaea, L.; [12]): 0.0
- SAGPY herbicidal rating (Sagittaria pygmaea, L.; [13]): 0.0
- SAGPY herbicidal rating (Sagittaria pygmaea, L.; [14]): 2.0
- SAGPY herbicidal rating (Sagittaria pygmaea, L.; [15]): 6.0
- CYPSE herbicidal rating [3, 14]: 6.0
- CYPSE herbicidal rating [3, 15]: 9.0

Molecule: C=CCONC(=O)c1nsc2ccc(-n3c(=O)cc(C(F)(F)F)n(C)c3=O)cc12 [Example 399, 1,2-Benzisothiazole-3-carboxamide, N-(allyloxy)-5-[3,6-dihydro-3-methyl-2,6-dioxo-4-(trifluoromethyl)-1(2H)-pyrimidinyl]-]
- herbicidal effect rating, MOOVA [1, 8]: 6.0
- herbicidal effect rating, MOOVA [1, 9]: 7.0
- herbicidal effect rating, MOOVA [1, 10]: 8.0
- herbicidal effect rating, MOOVA [1, 11]: 9.0
- herbicidal effect rating, ECHORC [2, 8]: 0.0
- herbicidal effect rating, ECHORC [2, 9]: 0.0
- herbicidal effect rating, ECHORC [2, 10]: 2.0
- herbicidal effect rating, ECHORC [2, 11]: 3.0
- herbicidal effect rating, CYPIR (Cyperus iria; [8]): 0.0
- herbicidal effect rating, CYPIR (Cyperus iria; [9]): 2.0
- herbicidal effect rating, CYPIR (Cyperus iria; [10]): 7.0
- herbicidal effect rating, CYPIR (Cyperus iria; [11]): 8.0
- herbicidal effect rating, SAGPY (Sagittaria pygmaea, L.; [8]): 0.0
- herbicidal effect rating, SAGPY (Sagittaria pygmaea, L.; [9]): 0.0
- herbicidal effect rating, SAGPY (Sagittaria pygmaea, L.; [10]): 0.0
- herbicidal effect rating, SAGPY (Sagittaria pygmaea, L.; [11]): 0.0
- herbicidal effect rating, CYPSE [3, 8]: 0.0
- herbicidal effect rating, CYPSE [3, 9]: 0.0
- herbicidal effect rating, CYPSE [3, 10]: 0.0
- herbicidal effect rating, CYPSE [3, 11]: 0.0

Molecule: 2,4(1H,3H)-Pyrimidinedione, 3-[3-(hydroxymethyl)-1,2-benzisothiazol-5-yl]-1-methyl-6-(trifluoromethyl)-, chlorophenylacetate (ester) [Example 504]
- MOOVA herbicidal rating [1, 12]: 6.0
- MOOVA herbicidal rating [1, 13]: 8.0
- MOOVA herbicidal rating [1, 14]: 9.0
- MOOVA herbicidal rating [1, 15]: 9.0
- ECHORC herbicidal rating [2, 12]: 2.0
- ECHORC herbicidal rating [2, 13]: 3.0
- ECHORC herbicidal rating [2, 14]: 6.0
- ECHORC herbicidal rating [2, 15]: 7.0
- CYPIR herbicidal rating (Cyperus iria; [12]): 4.0
- CYPIR herbicidal rating (Cyperus iria; [13]): 7.0
- CYPIR herbicidal rating (Cyperus iria; [14]): 9.0
- CYPIR herbicidal rating (Cyperus iria; [15]): 9.0
- SAGPY herbicidal rating (Sagittaria pygmaea, L.; [12]): 0.0
- SAGPY herbicidal rating (Sagittaria pygmaea, L.; [15]): 7.0
- CYPSE herbicidal rating [3, 12]: 0.0
- CYPSE herbicidal rating [3, 13]: 0.0
- CYPSE herbicidal rating [3, 14]: 0.0

Molecule: Cn1c(C(F)(F)F)cc(=O)n(-c2ccc3snc(C(C)(C)C(=O)OCc4ccccc4)c3c2)c1=O [Example 396, 1,2-Benzisothiazole-3-acetic acid, 5-[3,6-dihydro-3-methyl-2,6-dioxo-4-(trifluoromethyl)-1(2H)-pyrimidinyl]-alpha,alpha-dimethyl-, benzyl ester]
- herbicidal effect rating, MOOVA [1, 8]: 9.0
- herbicidal effect rating, MOOVA [1, 9]: 9.0
- herbicidal effect rating, MOOVA [1, 10]: 9.0
- herbicidal effect rating, MOOVA [1, 11]: 9.0
- herbicidal effect rating, ECHORC [2, 8]: 9.0
- herbicidal effect rating, ECHORC [2, 9]: 9.0
- herbicidal effect rating, ECHORC [2, 10]: 9.0
- herbicidal effect rating, ECHORC [2, 11]: 9.0
- herbicidal effect rating, CYPIR (Cyperus iria; [8]): 7.0
- herbicidal effect rating, CYPIR (Cyperus iria; [9]): 8.0
- herbicidal effect rating, CYPIR (Cyperus iria; [10]): 9.0
- herbicidal effect rating, CYPIR (Cyperus iria; [11]): 9.0
- herbicidal effect rating, SAGPY (Sagittaria pygmaea, L.; [8]): 7.0
- herbicidal effect rating, SAGPY (Sagittaria pygmaea, L.; [9]): 7.0
- herbicidal effect rating, SAGPY (Sagittaria pygmaea, L.; [10]): 8.0
- herbicidal effect rating, SAGPY (Sagittaria pygmaea, L.; [11]): 8.0
- herbicidal effect rating, CYPSE [3, 8]: 0.0
- herbicidal effect rating, CYPSE [3, 9]: 0.0
- herbicidal effect rating, CYPSE [3, 10]: 0.0
- herbicidal effect rating, CYPSE [3, 11]: 6.0

Molecule: Cn1c(C(F)(F)F)cc(=O)n(-c2ccc3snc(C(=O)NOS(=O)(=O)O)c3c2)c1=O [Example 417, 1,2-Benzisothiazole-3-carbohydroxamic acid, 5-[3,6-dihydro-3-methyl-2,6-dioxo-4-(trifluoromethyl)-1(2H)-pyrimidinyl]-, hydrogen sulfate (ester)]
- MOOVA ([1]; 0.0320 kg/ha): 6.0
- MOOVA ([1]; 0.0620 kg/ha): 6.0
- MOOVA ([1]; 0.1250 kg/ha): 9.0
- MOOVA ([1]; 0.2500 kg/ha): 9.0
- ECHORC ([2]; 0.0320 kg/ha): 0.0
- ECHORC ([2]; 0.0620 kg/ha): 0.0
- ECHORC ([2]; 0.1250 kg/ha): 3.0
- ECHORC ([2]; 0.2500 kg/ha): 3.0
- CYPIR (Cyperus iria; 0.0320 kg/ha): 4.0
- CYPIR (Cyperus iria; 0.0620 kg/ha): 4.0
- CYPIR (Cyperus iria; 0.1250 kg/ha): 5.0
- CYPIR (Cyperus iria; 0.2500 kg/ha): 6.0
- CYPSE ([3]; 0.1250 kg/ha, preemergence weeds, herbicidal effect rating 0-9, three to four weeks after treatment): 3.0
